Eleven compounds from ChEMBL document CHEMBL1201862, “PubChem BioAssay data set” (2004) can be followed below.

Test systems include CAKI-1; MDA-N; T47D; MOLT-4; ACHN; SN12C; OVCAR-5; A549; UO-31; KM12; RPMI-8226; 786-0; NCI-H23; Hs-578T; MCF7; NCI-H460; EKVX; CCRF-CEM; HL-60; HCC 2998.
Common to all, as to test: DTP human tumour cell line panel, 48 h

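Dose response: 5 concentrations. Exposure: 48 h. Format: 96-well plates. Endpoint: linear interpolation; highest concentration if not reached. GI50: concentration for 50% inhibition of growth.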 Active and inactive are the calls of the source. No stated cut-off is given here; in the data, active = GI50 up to about 1.1 µM and inactive = higher.

For orientation: GI50 means the concentration giving 50% growth inhibition. Turning to `CNc1ncnc(Sc2nc(N)nc3[nH]cnc23)c1[N+](=O)[O-]`, the GI50 was 0.582 µM (active) with CAKI-1; 0.552 µM (active) with MDA-N; 0.995 µM (active) in the test with T47D; 0.409 µM (active) with MOLT-4; 2.84 µM (inactive) in the test on ACHN; 0.933 µM (active) in the test with SN12C. Besides, the GI50 is 2.25 µM (inactive) in the test with OVCAR-5; 3.08 µM (inactive) in the test with A549; 0.676 µM (active) in the test with UO-31; 2.64 µM (inactive) with KM12; 0.15 µM (active) with RPMI-8226; 0.583 µM (active) in the test on 786-0. Moreover, the GI50 with NCI-H23 is 1.21 µM (inactive); with Hs-578T, 3.24 µM (inactive); in the test with MCF7 it was 0.735 µM (active); with NCI-H460, 0.552 µM (active); in the test on EKVX it was 3.08 µM (inactive); in the test with CCRF-CEM, 0.084 µM (active). The GI50 with HL-60 was 1.91 µM (inactive).
Regarding `C(=NCCN1CCOCC1)=NC1CCCCC1`, the GI50 in the test with CAKI-1, with MDA-N, in the test on T47D, in the test with MOLT-4, with ACHN and in the test with SN12C was > 100 µM (inactive) each time. The GI50 in the test with OVCAR-5, in the test with A549, in the test with UO-31, in the test on KM12, in the test on RPMI-8226 and with 786-0 was > 100 µM (inactive) each time. The GI50 in the test on NCI-H23, with Hs-578T, in the test with MCF7, in the test with NCI-H460 and in the test on EKVX was > 100 µM (inactive) throughout.
On to `Cc1n(CC(C)C)c2c([n+]1C)C(=O)c1ccccc1C2=O`, for which the GI50 in the test on CAKI-1 was 1.17 µM (inactive); in the test on MDA-N it was 0.166 µM (active); in the test with T47D, 0.0371 µM (active); with MOLT-4, 0.0478 µM (active); in the test on ACHN, 0.432 µM (active); in the test on SN12C, 0.0255 µM (active). Further, the concentration for 50% growth inhibition (GI50) in the test with OVCAR-5 was 0.244 µM (active); with A549, 0.114 µM (active); with UO-31 it was 1.29 µM (inactive); with KM12 it was 0.205 µM (active); in the test with RPMI-8226, 0.0628 µM (active); in the test on 786-0 it was 0.578 µM (active). Moreover, the GI50 in the test with NCI-H23 is 0.0374 µM (active); in the test on Hs-578T it was 0.565 µM (active); in the test with HCC 2998 it was 0.108 µM (active); with NCI-H460, 0.135 µM (active); in the test with EKVX, 0.0631 µM (active); with CCRF-CEM, 0.122 µM (active). The GI50 with HL-60 is 0.0405 µM (active).
`COc1ccccc1N1C(=O)CC(=O)N(C(=O)CCCCCCCCC(=O)N2C(=O)CC(=O)N(c3ccccc3OC)C2=S)C1=S`: the GI50 in the test with CAKI-1 was > 100 µM (inactive); with MDA-N, 67.3 µM (inactive); with T47D, 87.3 µM (inactive); in the test on MOLT-4, 35.1 µM (inactive); with ACHN, > 100 µM (inactive); in the test on SN12C it was > 100 µM (inactive). Further, the GI50 with OVCAR-5 is > 100 µM (inactive); with A549 it was 53.7 µM (inactive); in the test with UO-31, 45.9 µM (inactive); with KM12, 53.8 µM (inactive); in the test on RPMI-8226 it was 35.7 µM (inactive); in the test with 786-0, > 100 µM (inactive). Moreover, the GI50 in the test on NCI-H23 was 53.6 µM (inactive); in the test with Hs-578T, 69 µM (inactive); in the test with HCC 2998, > 100 µM (inactive); in the test with MCF7 it was 44.2 µM (inactive); in the test on NCI-H460 it was 83.9 µM (inactive); in the test on EKVX, 51.8 µM (inactive). In addition, the GI50 in the test on CCRF-CEM is 27.3 µM (inactive).
On to `COc1ccc(O)c(/C(C)=N/NC(=S)N(C)C)c1`, for which the GI50 with CAKI-1 was 16.7 µM (inactive); in the test with MDA-N it was > 73.3 µM (inactive); in the test on T47D, 40.9 µM (inactive); with MOLT-4, 36.5 µM (inactive); in the test on ACHN it was 13.5 µM (inactive); in the test on SN12C, > 44.2 µM (inactive). For the same compound, the GI50 in the test with OVCAR-5 was > 61.9 µM (inactive); in the test with A549, 23.4 µM (inactive); in the test on UO-31, 17.7 µM (inactive); in the test on KM12, 42 µM (inactive); in the test with RPMI-8226, 47.4 µM (inactive); with 786-0 it was > 40.7 µM (inactive). In addition, the GI50 in the test on NCI-H23 was 24.7 µM (inactive); in the test on Hs-578T it was > 100 µM (inactive); with HCC 2998, > 61.9 µM (inactive); with NCI-H460, 15.6 µM (inactive); in the test on EKVX, 31.9 µM (inactive); in the test with CCRF-CEM it was 8.93 µM (inactive). Also, in the test with HL-60, the GI50 is 56 µM (inactive).
On to `COC(=O)Nc1nc2cc(NC(=O)c3cccs3)ccc2[nH]1`, for which the GI50 in the test with CAKI-1 was 44.9 µM (inactive); in the test on MDA-N, 10.4 µM (inactive); in the test with T47D it was 31.3 µM (inactive); in the test on MOLT-4 it was 33.7 µM (inactive); with ACHN it was > 100 µM (inactive); with SN12C it was 57.1 µM (inactive). Besides, the GI50 was 61.8 µM (inactive) with OVCAR-5; 46.9 µM (inactive) with A549; 10.1 µM (inactive) in the test with UO-31; 21.6 µM (inactive) in the test with KM12; 18.8 µM (inactive) in the test on RPMI-8226; 50.9 µM (inactive) in the test on 786-0. Besides, the GI50 was 35.4 µM (inactive) with NCI-H23; 15.1 µM (inactive) in the test on Hs-578T; 32.1 µM (inactive) in the test on MCF7; 40 µM (inactive) in the test with NCI-H460; 40.3 µM (inactive) in the test with EKVX; 31.3 µM (inactive) with CCRF-CEM. The GI50 in the test with HL-60 is 61.7 µM (inactive).
`[N-]=[N+]=Nc1ccccc1-c1ccccc1[N+](=O)[O-]`: the GI50 was > 100 µM (inactive) with CAKI-1; 30.9 µM (inactive) in the test with MDA-N; 38.4 µM (inactive) in the test with T47D; 22.1 µM (inactive) in the test with MOLT-4; > 100 µM (inactive) with ACHN; 97.9 µM (inactive) in the test with SN12C. Further, the GI50 with OVCAR-5 was > 100 µM (inactive); in the test with A549, > 100 µM (inactive); in the test on UO-31, 72.8 µM (inactive); in the test on KM12, 49.2 µM (inactive); in the test with RPMI-8226, 26 µM (inactive); in the test with 786-0, 88.1 µM (inactive). The GI50 with NCI-H23 is 35.1 µM (inactive); in the test with Hs-578T, 30.5 µM (inactive); in the test on MCF7, 52 µM (inactive); with NCI-H460 it was 26.9 µM (inactive); with EKVX, 39.4 µM (inactive).
Take `Cc1cc2c(c(C(=O)NCC(=O)N[C@@H](C)C(=O)OCc3ccccc3)c1)Oc1c(cc(C)cc1C(=O)NCC(=O)N[C@@H](C)C(=O)OCc1ccccc1)S2`: the GI50 in the test with CAKI-1 is > 100 µM (inactive); in the test with MDA-N it was > 100 µM (inactive); in the test with T47D it was 2.41 µM (inactive); in the test with MOLT-4, 78 µM (inactive); in the test with ACHN, > 100 µM (inactive); in the test on SN12C it was > 100 µM (inactive). For the same compound, the GI50 in the test on OVCAR-5 was > 100 µM (inactive); with A549 it was > 100 µM (inactive); in the test on UO-31 it was > 100 µM (inactive); in the test on KM12 it was > 100 µM (inactive); with RPMI-8226, 43.3 µM (inactive); in the test on 786-0 it was > 100 µM (inactive). Moreover, the GI50 in the test with NCI-H23 is > 100 µM (inactive); in the test on Hs-578T, 26.2 µM (inactive); with HCC 2998, 34.7 µM (inactive); in the test with MCF7, > 100 µM (inactive); with NCI-H460, > 100 µM (inactive); in the test on EKVX, > 100 µM (inactive). Also, the GI50 with CCRF-CEM is > 100 µM (inactive).
On to `C/N=c1\sc2c(n1C)C(=O)c1ccccc1C2=O`, for which the GI50 is 8.41 µM (inactive) with CAKI-1; 0.222 µM (active) with MDA-N; 3.78 µM (inactive) in the test with T47D; 5.15 µM (inactive) with MOLT-4; 5.81 µM (inactive) in the test with ACHN; 1.64 µM (inactive) in the test on SN12C. The GI50 was 3.99 µM (inactive) in the test on OVCAR-5; 1.93 µM (inactive) in the test on A549; 7.45 µM (inactive) in the test on UO-31; 3.37 µM (inactive) in the test on KM12; 4.14 µM (inactive) in the test on RPMI-8226; 6.79 µM (inactive) with 786-0. The GI50 with NCI-H23 is 0.566 µM (active); in the test on Hs-578T, 2.39 µM (inactive); in the test with HCC 2998 it was 7.73 µM (inactive); in the test on MCF7 it was 1.65 µM (inactive); in the test with NCI-H460 it was 2.62 µM (inactive); with EKVX it was 10.7 µM (inactive). Besides, the GI50 in the test with CCRF-CEM is 4.15 µM (inactive).
Take `CC12C(=O)CC(CC1=O)C2(C)C`: the GI50 with CAKI-1, with MDA-N, with T47D, in the test with MOLT-4, in the test with ACHN and in the test with SN12C was > 100 µM (inactive) throughout. The GI50 in the test with OVCAR-5, in the test with A549, in the test on UO-31, with KM12, in the test on RPMI-8226 and in the test on 786-0 was > 100 µM (inactive) in each case. The GI50 in the test with Hs-578T, with MCF7, in the test with NCI-H460, in the test with EKVX, with CCRF-CEM and in the test on HL-60 was > 100 µM (inactive) throughout.
As to `C[C@H](NC(=O)CNC(=O)CCCCCC(=O)NCC(=O)N[C@@H](C)C(=O)OCc1ccccc1)C(=O)OCc1ccccc1`, the GI50 with CAKI-1, in the test on MDA-N, in the test with T47D, in the test with MOLT-4, in the test on ACHN and in the test on SN12C was > 100 µM (inactive) each time. In addition, the GI50 in the test on OVCAR-5, in the test with A549, in the test with KM12, with RPMI-8226, in the test on 786-0 and in the test on NCI-H23 was > 100 µM (inactive) throughout. Besides, the GI50 in the test with Hs-578T, with HCC 2998, in the test on MCF7, with EKVX and with CCRF-CEM was > 100 µM (inactive) throughout.
